Experimental data as given in patent US20060069132A1, “Azolecarboxamide herbicides” (priority 2004, published 2006).

Legend:
[1] = test system: barnyardgrass; assay: Test B pre-/postemergence herbicide test; assay type: in vivo, Echinochloa crus-galli; conditions: for Barnyardgrass plant response rating (0 to 100 scale) / Plant response rating, Barnyardgrass: 0 = no effect, 100 = complete control, preemergence; for Plant response rating, Barnyardgrass / Barnyardgrass plant response rating: visual rating; for Barnyardgrass plant response rating: postemergence, scale 0 (no effect) to 100 (complete control)
How it was run: (§1)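 Herbicidal effect was judged by eye on a 0–100 scale after plants stood 13 to 15 days in the greenhouse following pre- or postemergence treatment with surfactant-containing formulations.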

[2] = test system: Surinam grass; assay: Test B pre-/postemergence herbicide test; assay type: in vivo, Urochloa decumbens; conditions: for Surinam Grass plant response rating (0 to 100 scale) / Plant response rating, Surinam Grass: 0 = no effect, 100 = complete control, preemergence; for Surinam Grass plant response rating: postemergence
How it was run: as §1

[3] = test system: cocklebur; assay: Test B pre-/postemergence herbicide test; assay type: in vivo, Xanthium strumarium; conditions: for Cocklebur plant response rating: postemergence, scale 0 (no effect) to 100 (complete control)
How it was run: as §1

[4] = test system: corn; assay: Test B pre-/postemergence herbicide test; assay type: in vivo, Zea mays; conditions: for Corn plant response rating (0 to 100 scale) / Plant response rating, Corn: 0 = no effect, 100 = complete control, preemergence; for Corn plant response rating: postemergence
How it was run: as §1

[5] = test system: large crabgrass; assay: Test B pre-/postemergence herbicide test; assay type: in vivo, Digitaria sanguinalis; conditions: for Crabgrass, Large plant response rating (0 to 100 scale) / Plant response rating, Crabgrass, Large: 0 = no effect, 100 = complete control, preemergence; for Crabgrass, Large plant response rating: postemergence
How it was run: as §1

[6] = test system: giant foxtail; assay: Test B pre-/postemergence herbicide test; assay type: in vivo, Setaria faberi; conditions: for Foxtail, Giant plant response rating (0 to 100 scale) / Plant response rating, Foxtail, Giant: 0 = no effect, 100 = complete control, preemergence; for Foxtail, Giant plant response rating: postemergence
How it was run: as §1

[7] = test system: lambsquarters; assay: Test B pre-/postemergence herbicide test; assay type: in vivo, Chenopodium album; conditions: for Lambsquarters plant response rating (0 to 100 scale) / Plant response rating, Lambsquarters: 0 = no effect, 100 = complete control, preemergence; for Lambsquarters plant response rating: postemergence
How it was run: as §1

[8] = test system: morningglory; assay: Test B pre-/postemergence herbicide test; assay type: in vivo, Ipomoea coccinea; conditions: for Morningglory plant response rating (0 to 100 scale) / Plant response rating, Morningglory: 0 = no effect, 100 = complete control, preemergence; for Morningglory plant response rating: postemergence
How it was run: as §1

[9] = test system: pigweed; assay: Test B pre-/postemergence herbicide test; assay type: in vivo, Amaranthus retroflexus; conditions: for Pigweed plant response rating (0 to 100 scale) / Plant response rating, Pigweed: 0 = no effect, 100 = complete control, preemergence; for Pigweed plant response rating: postemergence
How it was run: as §1

[10] = test system: rice; assay: Test B pre-/postemergence herbicide test; assay type: in vivo, Oryza sativa; conditions: 0 = no effect, 100 = complete control, preemergence; for Rice plant response rating (0 to 100 scale): 125 g ai/ha; for Plant response rating, Rice: 500 g ai/ha, visual rating
How it was run: as §1

[11] = test system: velvetleaf; assay: Test B pre-/postemergence herbicide test; assay type: in vivo, Abutilon theophrasti; conditions: for Velvetleaf plant response rating (0 to 100 scale) / Plant response rating, Velvetleaf: 0 = no effect, 100 = complete control, preemergence; for Velvetleaf plant response rating: postemergence
How it was run: as §1

[12] = test system: blackgrass; assay: Test B postemergence herbicide test; assay type: in vivo, Alopecurus myosuroides; conditions: postemergence, visual rating, scale 0 (no effect) to 100 (complete control)
How it was run: (§2)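 Treated at 2-leaf (paddy) or 1–4-leaf, 2–18 cm (postemergence); greenhouse 13–15 d; visual score vs control, 0 none to 100 complete control; dash = not tested.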

[13] = test system: wheat; assay: Test B postemergence herbicide test; assay type: in vivo, Triticum aestivum; design: key to Wheat plant response rating: 0 = no effect, 100 = complete control; conditions: postemergence
How it was run: (§3)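 Visual ratings, 0 (no effect) to 100 (complete control), made versus controls after 13–15 d greenhouse. Paddy plants treated at 2-leaf stage; postemergence plants at 1- to 4-leaf stage, 2–18 cm tall.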

[14] = test system: wild oat; assay: Test B postemergence herbicide test; assay type: in vivo, Avena fatua; conditions: postemergence
How it was run: as §3

[15] = test system: rice; assay: Test B flooded paddy test; assay type: in vivo, Oryza sativa; conditions: 1000 g ai/ha, scale 0 to 100 (0 no effect, 100 complete control)
How it was run: as §2

[16] = test system: small flower umbrella sedge; assay: Test B flooded paddy test; assay type: in vivo, Cyperus difformis; conditions: 1000 g ai/ha, scale 0 to 100 (0 no effect, 100 complete control)
How it was run: as §2

[17] = test system: ducksalad; assay: Test B flooded paddy test; assay type: in vivo, Heteranthera limosa; conditions: 1000 g ai/ha, scale 0 to 100 (0 no effect, 100 complete control)
How it was run: as §2

[18] = test system: barnyardgrass; assay: Test B flooded paddy test; assay type: in vivo, Echinochloa crus-galli; conditions: 1000 g ai/ha, scale 0 to 100 (0 no effect, 100 complete control)
How it was run: as §2

[19] = 125 g ai/ha, visual rating, scale 0 (no effect) to 100 (complete control)
[20] = 500 g ai/ha, scale 0 to 100, 0 is no effect, 100 is complete control
[21] = 125 g ai/ha, 0 = no effect, 100 = complete control, preemergence

SMILES: C=CCN(CC=C)C(=O)c1cncc(NC(=O)c2cc(C(C)(C)C)nn2CC)c1 [Compound 262]
- Barnyardgrass plant response rating (0 to 100 scale) ([1]; 125 g ai/ha): 0
- Plant response rating, Barnyardgrass ([1]; 500 g ai/ha): 10
- Barnyardgrass plant response rating ([1]; 125 g ai/ha): 0
- Barnyardgrass plant response rating ([1]; 500 g ai/ha): 10
- Surinam Grass plant response rating (0 to 100 scale) ([2]; 125 g ai/ha): 0
- Plant response rating, Surinam Grass ([2]; 500 g ai/ha, visual rating): 10
- Surinam Grass plant response rating [2, 19]: 0
- Surinam Grass plant response rating [2, 20]: 20
- Cocklebur plant response rating (0 to 100 scale) [3, 21]: 0
- Cocklebur plant response rating ([3]; 125 g ai/ha, visual rating): 0
- Cocklebur plant response rating ([3]; 500 g ai/ha, visual rating): 10
- Corn plant response rating (0 to 100 scale) ([4]; 125 g ai/ha): 0
- Plant response rating, Corn ([4]; 500 g ai/ha, visual rating): 0
- Corn plant response rating [4, 19]: 0
- Corn plant response rating [4, 20]: 20
- Crabgrass, Large plant response rating (0 to 100 scale) ([5]; 125 g ai/ha): 0
- Plant response rating, Crabgrass, Large ([5]; 500 g ai/ha, visual rating): 30
- Crabgrass, Large plant response rating [5, 19]: 0
- Crabgrass, Large plant response rating [5, 20]: 20
- Foxtail, Giant plant response rating (0 to 100 scale) ([6]; 125 g ai/ha): 0
- Plant response rating, Foxtail, Giant ([6]; 500 g ai/ha, visual rating): 0
- Foxtail, Giant plant response rating [6, 19]: 10
- Foxtail, Giant plant response rating [6, 20]: 20
- Lambsquarters plant response rating (0 to 100 scale) ([7]; 125 g ai/ha): 40
- Plant response rating, Lambsquarters ([7]; 500 g ai/ha, visual rating): 90
- Lambsquarters plant response rating [7, 19]: 50
- Lambsquarters plant response rating [7, 20]: 80
- Morningglory plant response rating (0 to 100 scale) ([8]; 125 g ai/ha): 0
- Plant response rating, Morningglory ([8]; 500 g ai/ha, visual rating): 0
- Morningglory plant response rating [8, 19]: 0
- Morningglory plant response rating [8, 20]: 0
- Pigweed plant response rating (0 to 100 scale) ([9]; 125 g ai/ha): 50
- Plant response rating, Pigweed ([9]; 500 g ai/ha, visual rating): 100
- Pigweed plant response rating [9, 19]: 70
- Pigweed plant response rating [9, 20]: 80
- Rice plant response rating (0 to 100 scale) [10]: 0
- Plant response rating, Rice [10]: 0
- Velvetleaf plant response rating (0 to 100 scale) ([11]; 125 g ai/ha): 0
- Plant response rating, Velvetleaf ([11]; 500 g ai/ha, visual rating): 80
- Velvetleaf plant response rating [11, 19]: 20
- Velvetleaf plant response rating [11, 20]: 20
- Blackgrass plant response rating ([12]; 125 g ai/ha): 0
- Blackgrass plant response rating ([12]; 500 g ai/ha): 20
- Wheat plant response rating [13, 19]: 0
- Wheat plant response rating [13, 20]: 10
- Oat, Wild plant response rating [14, 19]: 0
- Oat, Wild plant response rating [14, 20]: 0
- Rice plant response rating [15]: 0
- Sedge, Umbrella plant response rating [16]: 0
- Ducksalad plant response rating [17]: 0
- Barnyardgrass plant response rating [18]: 0

SMILES: CCn1nc(C(C)(C)C)cc1C(=O)Nc1cccc(C(=O)N(C)OC)n1 [Compound 246]
- Barnyardgrass plant response rating (0 to 100 scale) ([1]; 125 g ai/ha): 60
- Plant response rating, Barnyardgrass ([1]; 500 g ai/ha): 90
- Barnyardgrass plant response rating ([1]; 125 g ai/ha): 30
- Barnyardgrass plant response rating ([1]; 500 g ai/ha): 70
- Surinam Grass plant response rating (0 to 100 scale) ([2]; 125 g ai/ha): 30
- Plant response rating, Surinam Grass ([2]; 500 g ai/ha, visual rating): 80
- Surinam Grass plant response rating [2, 19]: 20
- Surinam Grass plant response rating [2, 20]: 20
- Cocklebur plant response rating (0 to 100 scale) [3, 21]: 0
- Plant response rating, Cocklebur ([3]; 500 g ai/ha, visual rating, 0 = no effect, 100 = complete control, preemergence): 0
- Cocklebur plant response rating ([3]; 125 g ai/ha, visual rating): 20
- Cocklebur plant response rating ([3]; 500 g ai/ha, visual rating): 30
- Corn plant response rating (0 to 100 scale) ([4]; 125 g ai/ha): 0
- Plant response rating, Corn ([4]; 500 g ai/ha, visual rating): 20
- Corn plant response rating [4, 19]: 0
- Corn plant response rating [4, 20]: 10
- Crabgrass, Large plant response rating (0 to 100 scale) ([5]; 125 g ai/ha): 70
- Plant response rating, Crabgrass, Large ([5]; 500 g ai/ha, visual rating): 100
- Crabgrass, Large plant response rating [5, 19]: 10
- Crabgrass, Large plant response rating [5, 20]: 20
- Foxtail, Giant plant response rating (0 to 100 scale) ([6]; 125 g ai/ha): 30
- Plant response rating, Foxtail, Giant ([6]; 500 g ai/ha, visual rating): 90
- Foxtail, Giant plant response rating [6, 19]: 30
- Foxtail, Giant plant response rating [6, 20]: 30
- Lambsquarters plant response rating (0 to 100 scale) ([7]; 125 g ai/ha): 70
- Plant response rating, Lambsquarters ([7]; 500 g ai/ha, visual rating): 100
- Lambsquarters plant response rating [7, 19]: 50
- Lambsquarters plant response rating [7, 20]: 70
- Morningglory plant response rating (0 to 100 scale) ([8]; 125 g ai/ha): 0
- Plant response rating, Morningglory ([8]; 500 g ai/ha, visual rating): 10
- Morningglory plant response rating [8, 19]: 0
- Morningglory plant response rating [8, 20]: 10
- Pigweed plant response rating (0 to 100 scale) ([9]; 125 g ai/ha): 100
- Plant response rating, Pigweed ([9]; 500 g ai/ha, visual rating): 100
- Pigweed plant response rating [9, 19]: 50
- Pigweed plant response rating [9, 20]: 60
- Rice plant response rating (0 to 100 scale) [10]: 40
- Plant response rating, Rice [10]: 70
- Velvetleaf plant response rating (0 to 100 scale) ([11]; 125 g ai/ha): 60
- Plant response rating, Velvetleaf ([11]; 500 g ai/ha, visual rating): 90
- Velvetleaf plant response rating [11, 19]: 30
- Velvetleaf plant response rating [11, 20]: 60
- Blackgrass plant response rating ([12]; 125 g ai/ha): 0
- Blackgrass plant response rating ([12]; 500 g ai/ha): 0
- Wheat plant response rating [13, 19]: 0
- Wheat plant response rating [13, 20]: 30
- Oat, Wild plant response rating [14, 19]: 10
- Oat, Wild plant response rating [14, 20]: 20
- Rice plant response rating [15]: 60
- Sedge, Umbrella plant response rating [16]: 50
- Ducksalad plant response rating [17]: 50
- Barnyardgrass plant response rating [18]: 50
